Source: US11865098B1, “Methods and compositions for treating excessive sleepiness” (Axsome Malta Ltd., priority 2017, dated 2024)

How the values were obtained:
Format in all cases: in vivo, human
[1] = tested on: adults with OSA and excessive sleepiness; assay: Epworth Sleepiness Scale (ESS), phase 3 randomized withdrawal study in OSA; details: for ESS score after 4 weeks of APC treatment: randomized patients, mITT
Method: (§1) The ESS is a subjective sleepiness test that is well known in the art and routinely used to measure the sleepiness level of a subject. The scale is intended to measure daytime sleepiness through the use of a short questionnaire that asks the subject to rate his or her probability of falling asleep on a scale of increasing probability from 0 to 3 for eight different situations that most people engage in during their daily lives. The scores for the eight questions are added together to obtain a single number that estimates the subject's average sleep propensity (ASP). A number in the 0-10 range is considered to be normal while 11-12 indicates mild excessive sleepiness, 13-15 indicates moderate excessive sleepiness, and 16 or higher indicates severe excessive sleepiness. Narcolepsy patients have an average score of about 17. Obstructive sleep apnea (OSA) patients with excessive sleepiness have an average score of about 15.
The study was a double-blind, placebo-controlled, enriched, randomized withdrawal design (FIG. 1). In the Titration Phase (weeks 1-2), patients started on a once-daily dose of APC 75 mg and could be titrated up or down every 3 days to reach a maximum tolerated dose of APC 75, 150, or 300 mg. In the Stable-Dose Phase (weeks 3-4), patients continued to receive the dose that they were titrated to in the Titration Phase for 2 weeks. […]
Efficacy was based on change from week 4 to 6 on the co-primary endpoints of MWT and ESS and percentage of patients reported as improved on the PGI-C and Clinician Global Impression of Change (CGI-C); assessed on a 7-point scale from 1 (very much improved) to 7 (very much worse).
(§2) MWT and ESS data were analyzed using a mixed-effect model repeated measures (MMRM); PGI-C and CGI-C were evaluated using a chi-square test. […] Safety and tolerability were evaluated based on treatment-emergent adverse events (TEAEs), vital signs, and laboratory values.

[2] = tested on: adults with OSA and excessive sleepiness; assay: Safety and tolerability (TEAEs), phase 3 randomized withdrawal study in OSA
Method: The study was a double-blind, placebo-controlled, enriched, randomized withdrawal design (FIG. 1). In the Titration Phase (weeks 1-2), patients started on a once-daily dose of APC 75 mg and could be titrated up or down every 3 days to reach a maximum tolerated dose of APC 75, 150, or 300 mg. In the Stable-Dose Phase (weeks 3-4), patients continued to receive the dose that they were titrated to in the Titration Phase for 2 weeks. In the Double-Blind Withdrawal Phase (weeks 5-6), patients who reported “much” or “very much” improvement on the Patient Global Impression of Change (PGI-C) scale (Guy W. ECDEU assessment manual for psychopharmacology, revised. US Department of Health, Education, and Welfare publication (ADM 76-338). Rockville, MD: National Institute of Mental Health; 1976), and who had improved on the Maintenance of Wakefulness Test (MWT) and Epworth Sleepiness Scale (ESS) (Johns, Sleep 14(6):540 (1991)) at week 4 were randomized 1:1 to receive the same current dose of JZP-110 or placebo for 2 weeks.
as §2

[3] = tested on: patients with narcolepsy type 1 or type 2; assay: ESS, 12-week phase 3 study in narcolepsy
Method: as §1
The study was a 12-week, double-blind, randomized, placebo-controlled, parallel-group study. […]
Efficacy analyses were based on the modified intent-to-treat population (mITT), defined as all patients who were randomized, received at least 1 dose of study drug, and had baseline and at least 1 post-baseline evaluation of both MWT and ESS. MWT and ESS were analyzed using a mixed-effect repeated measures (MMRM) model. PGI-C was analyzed using a chi-square test. […]

[4] = Randomized Withdrawal Phase, all JZP-110 doses (n = 62)
[5] = Stable-Dose Phase, all JZP-110 doses (n = 157)

Compound: NC(=O)OC[C@H](N)Cc1ccccc1 [JZP-110, (R)-2-amino-3-phenylpropyl carbamate]
- Mean decrease in ESS score from week 4 to week 6 ([1]; Double-Blind Withdrawal Phase, patients who stayed on APC, P<0.0001 vs switched to placebo): 0.1
- ESS score after 4 weeks of APC treatment ([1]; group decreased from 15.3 at baseline): 6.4
- ESS score after 4 weeks of APC treatment ([1]; group decreased from 16.0 at baseline): 5.9
- Any TEAE, incidence [2, 4]: ρ 18 (29.0) n (%)
- Aphthous stomatitis, incidence [2, 4]: ρ 1 (1.6) n (%)
- Cough, incidence [2, 4]: ρ 1 (1.6) n (%)
- Nasopharyngitis, incidence [2, 4]: ρ 3 (4.8) n (%)
- Serious TEAEs, incidence [2, 4]: ρ 0 n (%)
- TEAEs leading to withdrawal, incidence [2, 4]: ρ 0 n (%)
- Upper respiratory tract infection, incidence [2, 4]: ρ 1 (1.6) n (%)
- Diarrhea, incidence [2, 5]: ρ 0 n
- Dyspepsia, incidence [2, 5]: ρ 0 n
- Serious TEAE, incidence [2, 5]: ρ 0 n
- TEAE leading to withdrawal, incidence [2, 5]: ρ 0 n
- Any TEAE, incidence ([2]; Stable-Dose Phase, all JZP-110 doses (n = 157), listed as APC): 10.2%
- Serious TEAE, incidence ([2]; Titration Phase, all JZP-110 doses (n = 174)): ρ 0 n
- Any TEAE, incidence ([2]; Titration Phase, all JZP-110 doses (n = 174), listed as APC): 48.9%
- Rebound hypersomnia or withdrawal effects after abrupt discontinuation ([2]; placebo group in the Randomized Withdrawal Phase): no evidence of rebound hypersomnia or withdrawal effects
- Serious TEAEs in the study ([2]; whole study): no serious TEAEs
- ESS scores, effect at week 1 ([3]; 150 and 300 mg, as early as week 1): Statistically significant effects
- ESS scores relative to placebo ([3]; all doses, week 12, mITT): significantly decreased ESS scores relative to placebo
